Data on 12 molecules can be found in patent publication US4323547A, “Labeled fatty acids and method of making and using same” (priority 1978, dated 1982).

One data set concerns heart muscle. Put plainly: Heart muscle uptake and elimination of radiolabelled fatty acids after tail vein injection in mice. The format is in vivo, NMRI mice. As to the method:
(§1) Animal experiments with mice were carried out using the product resulting from the high pressure liquid chromatographic purification after evaporation of the eluate to dryness in a rotary evaporator and the dissolution of the product in human serum albumin. The solution is filtered and injected in aliquot portions to the tail vein of each animal.
(§2) The following table assembles the results of comparative tests with the compounds of the invention and prior art compounds: […]

Experiment in data set [1]: as above
The format is in vivo, NMRI mice. The conditions noted are these: mouse, in vivo, iv; for tissue uptake at 2 min: NMRI mice, tail vein injection in human serum albumin, read-out: maximum 18F activity in the heart muscle. As to the method:
as §1, §2

Setting [2] is: comparative tests, table 2, heart.
Where [3] appears, read: NMRI mice, tail vein injection in human serum albumin.

On to `O=C(O)CCCCCCCCCCCCCCCC[34Cl]` [17-^34m Cl-Heptadecanoic acid], for which, in the data set with heart muscle (comparative tests, table 2), the “Max. Enrichment in % of Injected Dose per Heart” value (“Max. Enrichment in % … per Heart” below) is reported as 2.16 ± 0.6 % of Injected Dose per Heart. In the data set with heart muscle (setting [2]), the “Elimination Half-time, rapid elimination” value was 0.9 ± 0.2 min; the “Elimination Half-time, slow elimination” value was determined as 23 ± 4.7 min; the “Time to Max. Enrichment” value is 0.25 min.
As to `O=C(O)CCCCCCCCCCCCCCCC[18F]` [17-^18 F-Heptadecanoic acid], the tissue uptake at 2 min in data set [1] is roughly 40 %ID/g. Besides, the tissue uptake in data set [1] (general description, read-out: maximum pickup in heart muscle) was roughly 40 %ID/g. In the data set on heart muscle (setting [3]), the “dropoff of heart activity, long-duration component” value (from here on “dropoff … long-duration component”) is on record as “eighteen to fifty-one”; the “dropoff of heart activity, short-duration component” value (“dropoff … short-duration component” below) was “two to six”; the “time within which the activity reaches a maximum in heart muscle” value is given as “two”. Further, the “Max. Enrichment in % … per Heart” value with heart muscle (comparative tests, table 2) is 4.812 ± 0.8 % of Injected Dose per Heart. Besides, in the data set with heart muscle (setting [2]), the “Elimination Half-time, rapid elimination” value is 6 ± 1.5 min; the “Elimination Half-time, slow elimination” value is 18 ± 6 min; the “Time to Max. Enrichment” value was determined as 0.5 min.
On to `CCCCCCCCCCCCCCCCC([123I])C(=O)O` (stereo not shown) [2-^123 I-Stearic acid], for which the “Max. Enrichment in % … per Heart” value in the data set on heart muscle (mouse, in vivo) was 1.411 ± 0.1 % of Injected Dose per Heart. Further, in the data set with heart muscle (mouse, in vivo, iv), the “Elimination Half-time, rapid elimination” value is on record as 2 ± 0.4 min; the “Elimination Half-time, slow elimination” value was determined as 13 ± 2.7 min; the “Time to Max. Enrichment” value lay in the range of 0.5 to 1 min.
In the case of “(9/10)-^18 F-stearic acid [9/10-^18 F-Stearic acid]”, in the data set on heart muscle (setting [3]), the “dropoff … long-duration component” value was “eighteen to fifty-one”; the “dropoff … short-duration component” value is given as “two to six”; the “time within which the activity reaches a maximum in heart muscle” value was “two”. Also, the “maximum 18F activity in the heart muscle” value in the data set on heart muscle (NMRI mice, tail vein injection in human serum albumin, 2 min) is reported as “about 40 % gram (heart)”. Besides, the “Max. Enrichment in % … per Heart” value in the data set on heart muscle (comparative tests, table 2) is listed as 4.25 ± 0.9 % of Injected Dose per Heart. In addition, in the data set with heart muscle (setting [2]), the “Elimination Half-time, rapid elimination” value worked out at 4 ± 1 min; the “Elimination Half-time, slow elimination” value is 24 ± 7 min; the “Time to Max. Enrichment” value is 0.5 min.
With `CCCCCCCCCCCCCCCCC([34Cl])C(=O)O` (stereo not shown) [2-^34m Cl-Stearic acid], the “Max. Enrichment in % … per Heart” value with heart muscle (mouse, in vivo) is listed as 2.03 ± 0.1 % of Injected Dose per Heart. Also, in the data set with heart muscle (mouse, in vivo, iv), the “Elimination Half-time, rapid elimination” value came to 0.9 ± 0.2 min; the “Elimination Half-time, slow elimination” value is given as 9 ± 1.8 min; the “Time to Max. Enrichment” value stood at 1 min.
The corresponding values for `O=C(O)CCCCCCCCCCCCCCCC[77Br]` [17-^77 Br-Heptadecanoic acid] are 2.210 ± 0.6 % of Injected Dose per Heart, 0.6 ± 0.1 min, 36 ± 7.2 min and 0.5 min.
For `CCCCCCCCCCCCCCC[11C](=O)O` [1-[^11 C] Palmitic acid], the “Max. Enrichment in % … per Heart” value in the data set with heart muscle (comparative tests, table 2) is recorded as 3.87 ± 1.0 % of Injected Dose per Heart. Moreover, in the data set on heart muscle (setting [2]), the “Elimination Half-time, slow elimination” value amounted to 33 ± 6.5 min and the “Time to Max. Enrichment” value was determined as 0.25 min. Also, the “Elimination Half-time, rapid elimination” value in the data set on heart muscle (mouse, in vivo, iv) came out at 0.4 ± 0.1 min.
As for `O=C(O)CCCCCCCCCCCCCCC[123I]` [16-^123 I-Palmitic acid], in the data set on heart muscle (mouse, in vivo), the “Max. Enrichment in % … per Heart” value is listed as 3.36 ± 0.4 % of Injected Dose per Heart. In the data set on heart muscle (mouse, in vivo, iv), the “Elimination Half-time, rapid elimination” value was 2.4 ± 0.5 min; the “Elimination Half-time, slow elimination” value was found to be 33 ± 6.6 min; the “Time to Max. Enrichment” value is 0.5 min.
Regarding `CCCCCCCCCCCCCCCCC([18F])C(=O)O` (stereo not shown) [2-^18 F-Stearic acid], the “Max. Enrichment in % … per Heart” value with heart muscle (comparative tests, table 2) was 1.34 ± 0.1 % of Injected Dose per Heart. Moreover, in the data set on heart muscle (setting [2]), the “Elimination Half-time, rapid elimination” value is 0.5 ± 0.1 min; the “Elimination Half-time, slow elimination” value turned out to be 5 ± 1.5 min; the “Time to Max. Enrichment” value is 1 min.
Take `O=C(O)CCCCCCCCCCCCCCCC[123I]` [17-^123 I-Heptadecanoic acid]: the “Max. Enrichment in % … per Heart” value with heart muscle (mouse, in vivo) was 3.97 ± 0.4 % of Injected Dose per Heart. Moreover, in the data set with heart muscle (mouse, in vivo, iv), the “Elimination Half-time, rapid elimination” value is on record as 2.1 ± 0.4 min; the “Elimination Half-time, slow elimination” value is on record as 25 ± 5.0 min; the “Time to Max. Enrichment” value was 0.25 min.
The corresponding values for `CCCCCCCCCCCCCCCCC([77Br])C(=O)O` (stereo not shown) [2-^77 Br-Stearic acid] are 1.47 ± 0.3 % of Injected Dose per Heart, 1 ± 0.2 min, 18 ± 3.6 min and 1 min.
Take `O=C(O)CCCCCCCCCCCCCCC[18F]` [16-^18 F-Palmitic acid, 16-^18 F hexadecanoic acid]: the tissue uptake at 2 min in data set [1] was roughly 40 %ID/g. Also, in the data set on heart muscle (setting [3]), the “dropoff … long-duration component” value is given as “eighteen to fifty-one”; the “dropoff … short-duration component” value is given as “two to six”; the “time within which the activity reaches a maximum in heart muscle” value is reported as “two”. Further, the “Max. Enrichment in % … per Heart” value with heart muscle (comparative tests, table 2) is listed as 4.35 ± 1.3 % of Injected Dose per Heart. Further, in the data set with heart muscle (setting [2]), the “Elimination Half-time, rapid elimination” value was found to be 3 ± 0.8 min; the “Elimination Half-time, slow elimination” value is listed as 44 ± 11 min; the “Time to Max. Enrichment” value turned out to be 0.25 min.
